Source: US20050014690A1, “Styryl acrylonitrile compounds and their use to promote myelopoiesis” (priority 2001, published 2005)

System: normal bone marrow mononuclear cells
Test: Long-term culture-initiating cell (LTC-IC) assay on stroma after pre-incubation
Format: cell-based, human
Settings: for myeloproliferation in long-term cultures: pre-incubated with 50 uM for 5 hours, FIG. 11
From the text: The long-term BM culture system provides the means to investigate the proliferation and differentiation properties of primitive hematopoietic cells. To assess the long-term effects of CR4 on early progenitor cells the long-term culture-initiating cell (LTC-IC) assay was set up utilizing stromal microenvironment. Briefly, to obtain stromal cells bone marrow mononuclear cells were suspended in long-term culture (LTC) media (MyeloCult Stem Cell Technologies Inc.) supplemented with 10^−6 mol/L hydrocortisone sodium succinate (HSS; Sigma Aldrich Canada Ltd., Mississauga, Ont.,Canada). Approximately 1×10^7 cells were plated into 25 cm^2 tissue culture flasks (Becton Dickinson Labware, Franklin Lakes, N.J., USA) and incubated for 3 days at […] in a humidified atmosphere with 5% CO2 followed by incubation at 33° C. Cultures were re-fed weekly by replacing half of the medium. Following stromal confluency (3-6 weeks) cells were trypsinized and irradiated (1,500 cGy) using a Cs source. Stromal cells were again replated in LTC media at a concentration of 0.5-1.0×10^6 cells per 35 mm culture dishes (Nunc-Gibco BRL, Gaithersburg, Md.). Subcultured stroma was incubated for 2-3 days (at greater than 70% confluency) prior to co-culturing with fresh non-adherent overlay of hematopoietic cells. Normal bone marrow mononuclear cells, purified by centrifugation on Percoll, at a concentration of 1×10^6 cells/ml were pre-incubated with 50 uM CR4 or the drug diluent alone for a period of 5 hours at 37° C. in media. Cells were then washed twice to remove the compound and plated at 2×10^5 cells/ml for the short-term CFU-GEMM clonogenic assay (as previously described) while the remainder of the non-adherent cells were co-cultured with normal stroma (as described above) for long-term cultures. Long-term cultures were set up with two unrelated normal bone marrow samples (NBM1 and NBM2). Half of the non-adherent mononuclear cells were removed weekly from the stromal co-cultures and plated for colony-forming cells (CFU-GM) in the CFU-GEMM assay.

N#C/C(=C\C=C\c1ccc(O)c(O)c1)C(=O)NCc1ccccc1 [CR4, (E,E)-2-(Benzylaminocarbonyl)-3-(3,4-dihydroxystyryl)acrylonitrile]
significant increase: number of CFU-GM in long-term cultures (50 μM for 5 hours) | myeloproliferation in long-term cultures (NBM1) | myeloproliferation in long-term cultures (NBM2)
